Reference: patent US9817000B2, “Method for identifying compounds that modulate a T2R taste receptor” (The Regents of the University of California, priority 1999, dated 2017)

Biological target: T1, mT2R5 coupling to Gαs, Gαi, Gαq or Gαo (Mus musculus, UniProt Q9JKT4)
T1 construct: infectious Bacmid containing rhodopsin tagged mT2R5 (DBA/2-allele) was produced using the Bac-to-Bac system; rhodopsin tag (rho); made in house; host or cells: insect larval cells infected with recombinant Bacmid (Bac-to-Bac); membrane preparation
T1 sequence (Q9JKT4 1-300): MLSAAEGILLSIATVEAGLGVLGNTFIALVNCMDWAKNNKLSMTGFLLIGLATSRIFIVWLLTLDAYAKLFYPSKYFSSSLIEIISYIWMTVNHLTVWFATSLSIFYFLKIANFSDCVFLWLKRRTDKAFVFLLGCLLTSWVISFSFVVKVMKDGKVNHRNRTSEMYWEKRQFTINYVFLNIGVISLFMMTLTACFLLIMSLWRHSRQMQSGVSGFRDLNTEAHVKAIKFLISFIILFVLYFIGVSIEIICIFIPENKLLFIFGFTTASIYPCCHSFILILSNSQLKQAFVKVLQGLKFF
Test: Tastant-induced GTPγS binding to other G-protein α-subunits with mT2R5 membranes
Type: biochemical
Protocol: To investigate the selectivity of T2R-G-protein coupling, mT2R5 was chosen for study because its activation by cycloheximide recapitulates mouse taste responses. Rho-tagged mT2R5 and gustducin were prepared using a baculovirus expression system. mT2R5-containing membranes were incubated with various purified G-proteins, including gustducin, and measured tastant-induced GTP-γS binding (Hoon et al., Biochem J 309:629-636 (1995)). Specifically, infectious Bacmid containing rhodopsin tagged mT2R5 (DBA/2-allele) was produced using the Bac-to-Bac system (Lifetechnologies, MD). Insect larval cells were infected for 60 h with recombinant Bacmid and membranes were prepared as described previously (Ryba and Tirindelli, J Biol Chem, 270:6757-6767 (1995)). Peripheral proteins were removed by treatment with 8 M urea and membranes were resuspended in 10 mM HEPES pH7.5, 1 mM EDTA and 1 mM DTT. The expression of rho-mT2R5 was assessed by Western blot using mAb B6-30 and quantitated by comparison with known amounts of rhodopsin. Approximately 300 pmol of rho-mT2R5 could be obtained from 2×10^8 infected cells. […] Receptor-catalyzed exchange of GDP for GTPγS on gustducin and other G-protein α-subunits was measured in the presence of 10 nM rho-mT2R5, 100 μM GDP, and 20 μM Gβ1γ8. […]

Question: With `C[C@@H]1C[C@@H]([C@H](O)CC2CC(=O)NC(=O)C2)C(=O)[C@@H](C)C1` [cycloheximide] as the molecule, how does the “coupling of mT2R5 to other G-proteins” value read?
Answer: no coupling
